Experimental data published in patent US5677291A, “Method of lowering serum cholesterol levels with 2,6-di-alkyl-4-silyl-phenols” (Hoechst Marion Roussel, Inc., priority 1996, dated 1997).

Tests used:
Format in all cases: in vivo, New Zealand White rabbit
[1] = test system: 0.2% Cholesterol-Fed New Zealand White Rabbits; assay: Reduction of cholesterol levels of 0.2% cholesterol-fed rabbits by concurrent administration of 0.4% Compound A (Example 19); settings: for Cholesterol: plasma or serum, n = 6
Experimental: NZW rabbits (female, aged 3-4 months, weighing less than 3 Kg), six in each group, were fed a control diet of 0.2% cholesterol (100 g rabbit chow daily containing 0.2 g cholesterol) or a diet of 0.2% cholesterol/0.4% drag (100 g rabbit chow daily containing 0.2 g cholesterol and 0.4 g Compound A). After 56 days, the rabbits were sacrificed by intravenous injection of pentobarbital. Plasma or serum was collected and cholesterol levels were determined using the enzymatic method of Mao, et at., Clin. Chem. (1983) 29: 1890-1897.

[2] = test system: 0.2% Cholesterol-Fed New Zealand White Rabbits; assay: Liver weight / body weight ratio in 0.2% cholesterol-fed rabbits, concurrent 0.4% drug (Example 20); settings: 0.2% cholesterol/0.4% drug diet
From the text: (§1) NZW rabbits (female, aged 3-4 months, weighing less than 3 Kg), six in each group, were fed a control diet of 0.2% cholesterol (100 g rabbit chow daily containing 0.2 g cholesterol) or a diet of 0.2% cholesterol/0.4% drug (100 g rabbit chow daily containing 0.2 g cholesterol and 0.4 g of drag). For Compound A, the rabbits were sacrificed by intravenous injection of pentobarbital after 56 days. For Compound G, K, E and H, the rabbits were sacrificed by intravenous injection of pentobarbital after 7 days. Plasma or serum was collected and cholesterol levels were determined using the enzymatic method of Mao, et at., Clin. Chem. (1983) 29:1890-1897. Liver weight and body weights were determined. Serum HDL and LDL cholesterol levels were determined using gel filtration HPLC modified from Kieft, K. A., et at., J. Lipid Res., 32:859-861 (1991), using Roche enzymatic cholesterol reagents. Triglyceride levels were determined by Cobas Automated Analyzer using Roche enzymatic reagents.

[3] = test system: 1% Cholesterol-Fed New Zealand White Rabbits; assay: Reduction of cholesterol levels of 1% cholesterol-fed rabbits by concurrent administration of 0.5% Compound A (Example 18); settings: 1% cholesterol/0.5% drug diet; for Cholesterol: plasma or serum, n = 6
Experimental: New Zealand Whim (NZW) rabbits (female, aged 3-4 months, weighing less than 3 kg) six in each group, were fed a control diet of 1% cholesterol (100 g rabbit chow daily containing 1 g cholesterol) or a diet of 1% cholesterol/0.5% drag (100 g rabbit chow daily containing 1 g cholesterol and 0.5 g Compound A). After 56 days, the rabbits were sacrificed by intravenous injection of pentobarbital. Plasma or serum was collected and cholesterol levels were determined using the enzymatic method of Mao, et at., Clin. Chem. (1983) 29:1890-1897.

[4] = test system: Normolipidemic New Zealand Rabbits; assay: Reduction in cholesterol levels of normolipidemic rabbits by concurrent administration of 0.5% Compound A (Example 21); settings: normal diet with 0.5% drug; for Cholesterol: serum, n = 4
Experimental: New Zealand White rabbits (female, aged 3-4 months, weighing less than 3 kg), four in each group, were fed a normal diet (100 g rabbit chow daily) or a diet of 0.5% drug (100 g rabbit chow daily containing 0.5 g Compound A). Serum was collected and cholesterol levels were determined according to the method of Mao, et at., Clin. Chem. (1983) 29:1890-1897.

[5] = test system: 0.2% Cholesterol-Fed New Zealand White Rabbits; assay: Serum total, LDL and HDL cholesterol and triglycerides in 0.2% cholesterol-fed rabbits, concurrent 0.4% drug (Example 20); set-up: triglycerides: reference not given here; settings: 0.2% cholesterol/0.4% drug diet; for cholesterol (total) % Control / HDL cholesterol % Control / LDL cholesterol % Control: % of control; for HDL cholesterol % Control / LDL cholesterol % Control: serum, gel filtration HPLC
From the text: as §1

CC(C)(C)c1cc(SC[Si](C)(C)c2ccccc2)cc(C(C)(C)C)c1O [Compound A, 2,6-Di-t-butyl-4[(dimethylphenylsilyl)methylthio]phenol]
reduction of cholesterol ([1]; 56 days, 0.2% cholesterol/0.4% drug diet): 64% | cholesterol lowering (in words) ([1]; administration for 56 days, 0.2% cholesterol-fed rabbits): significant cholesterol lowering | Cholesterol ([1]; day 0, 0.2% cholesterol/0.4% drug diet): 66 ± 8 mg/dL | Cholesterol ([1]; day 7, 0.2% cholesterol/0.4% drug diet): 154 ± 17 mg/dL | Cholesterol ([1]; day 14, 0.2% cholesterol/0.4% drug diet): 223 ± 32 mg/dL | Cholesterol ([1]; day 28, 0.2% cholesterol/0.4% drug diet): 291 ± 59 mg/dL | Cholesterol ([1]; day 42, 0.2% cholesterol/0.4% drug diet): 357 ± 89 mg/dL | Cholesterol ([1]; day 56, 0.2% cholesterol/0.4% drug diet): 337 ± 100 mg/dL | liver wt/body wt ratio ([2]; 56 days): 120% | Cholesterol ([3]; day 0): 59 ± 8 mg/dL | Cholesterol ([3]; day 14): 684 ± 99 mg/dL | Cholesterol ([3]; day 28): 954 ± 126 mg/dL | Cholesterol ([3]; day 42): 1118 ± 164 mg/dL | Cholesterol ([3]; day 56): 1035 ± 152 mg/dL | reduction of serum cholesterol ([3]; day 56, vs control): 57% | Cholesterol ([4]; day 0): 43.5 ± 4 mg/dL | Cholesterol ([4]; day 8): 69.7 ± 6 mg/dL | Cholesterol ([4]; day 14): 54.8 ± 8 mg/dL | level of cholesterol significantly reduced by ([4]; day 23, compared to control rabbits): about 29% | Cholesterol ([4]; day 23): 58.3 ± 6 mg/dL | triglycerides ([5]; 56 days): 366% | cholesterol (total) % Control ([5]; 56 days): 52% | HDL cholesterol % Control ([5]; 56 days): 75% | LDL cholesterol % Control ([5]; 56 days): 42%

CC(C)(C)c1cc(OC[Si](C)(C)c2ccccc2)cc(C(C)(C)C)c1O [Compound G]
liver wt/body wt ratio ([2]; 7 days): 104% | triglycerides ([5]; 7 days): 104% | cholesterol (total) % Control ([5]; 7 days): 72% | HDL cholesterol % Control ([5]; 7 days): 81% | LDL cholesterol % Control ([5]; 7 days): 69%

COc1ccc([Si](C)(C)COc2cc(C(C)(C)C)c(O)c(C(C)(C)C)c2)cc1 [Compound H, 2,6-Di-t-butyl-4[(dimethyl-4-methoxyphenylsilyl)methyloxy]phenol]
liver wt/body wt ratio ([2]; 7 days): 110% | triglycerides ([5]; 7 days): 73% | cholesterol (total) % Control ([5]; 7 days): 54% | HDL cholesterol % Control ([5]; 7 days): 123% | LDL cholesterol % Control ([5]; 7 days): 66%

COc1ccccc1[Si](C)(C)COc1cc(C(C)(C)C)c(O)c(C(C)(C)C)c1 [Compound K, 2,6-Di-t-butyl-4-[(dimethy 1-2-methoxyphenylsilyl)methyloxy]phenol]
liver wt/body wt ratio ([2]; 7 days): 90% | triglycerides ([5]; 7 days): 131% | cholesterol (total) % Control ([5]; 7 days): 77% | HDL cholesterol % Control ([5]; 7 days): 217% | LDL cholesterol % Control ([5]; 7 days): 61%

CC(C)(C)c1cc(OC[Si](C)(C)c2ccc(Cl)cc2)cc(C(C)(C)C)c1O [E, 2,6 Di-t-butyl-4[(4-chlorophenyldimethylsilyl)methyloxy]phenol]
liver wt/body wt ratio ([2]; 7 days): 93% | triglycerides ([5]; 7 days): 82% | cholesterol (total) % Control ([5]; 7 days): 87% | HDL cholesterol % Control ([5]; 7 days): 109% | LDL cholesterol % Control ([5]; 7 days): 89%
